One series deals with T1, p38α (Homo sapiens, UniProt Q16539).
T1 construct: p38 MAP Kinases are recombinant human full-length proteins with an amino-terminal GST fusion; GST (N); purchased Upstate Biotechnology Inc; host or cells: E. coli
Put plainly: p38 MAP Kinase assay: inhibition of ATF2 phosphorylation, ELISA. In kind it is biochemical. Particulars: ATF2 phosphorylation; read-out: [ENZ] P38 ALPHA, IC50, ELISA. An outline of the steps: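 GST-tagged full-length human p38 MAP kinase with GST-ATF2 (aa 19–96; 1.25 μM) and 40 μM ATP in HEPES pH 7.5 buffer, without (Method I) or with (Method II) 1% human serum albumin. Compound pre-incubated 15 min at room temperature; reaction 30 min at 37 °C; ATF2 Thr69 phosphorylation measured by ELISA (A450).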
On the technique in general: In an ELISA, binding on a coated surface is turned into a signal by an enzyme label.

The test system of series [1] is TNFα release from THP-1 cells. Briefly: Inhibition of TNFα release from LPS-stimulated THP-1 cells, ELISA. Type of series: cell-based. Particulars: Homo sapiens, THP-1, THP-1 cells, read-out: [CELL] THP-1, IC50, TNF ALPHA, ELISA. The essentials:
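Human THP-1 monocytes, 10^6 cells/ml in RPMI with 10% FBS, no serum or 1% HSA, preincubated 30 min at 37 °C with compound (≤0.5% DMSO), then stimulated with 10 μg/ml LPS for 18 h. Supernatant TNFα measured by ELISA; IC50 from non-linear dose-response regression.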

T1 sequence (Q16539 whole entry, the tested form may be a part): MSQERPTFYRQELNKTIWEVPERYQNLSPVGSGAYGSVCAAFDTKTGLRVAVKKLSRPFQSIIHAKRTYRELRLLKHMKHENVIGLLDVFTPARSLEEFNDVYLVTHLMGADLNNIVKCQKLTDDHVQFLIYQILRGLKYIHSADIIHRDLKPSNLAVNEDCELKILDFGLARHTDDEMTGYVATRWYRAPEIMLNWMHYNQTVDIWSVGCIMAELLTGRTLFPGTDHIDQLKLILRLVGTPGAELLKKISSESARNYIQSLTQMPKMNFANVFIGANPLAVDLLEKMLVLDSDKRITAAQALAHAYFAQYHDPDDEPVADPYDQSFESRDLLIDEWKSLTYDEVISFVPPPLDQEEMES

In general, IC50 refers to the concentration that inhibits the measured activity by half. Usually melting point stands for the temperature of the solid-liquid transition. In the case of `O=C(Nc1ccc(Oc2ccnc(N3CCOCC3)n2)c2ccccc12)c1cc(F)cc(N2CCOCC2)c1` [Compound B248, 3-Fluoro-5-morpholin-4-yl-N-{4-[(2-morpholin-4-ylpyrimidin-4-yl)oxy]-1-naphthyl}benzamide], the melting point lay within 104 to 106 °C. For the same compound, the IC50 on p38α was 46.6 nM. Besides, the IC50 in series [1] was found to be 157 nM.

`O=C(Nc1ccc(Oc2ccnc(NCc3ccccc3)n2)c2ccccc12)c1cc(F)cc(N2CCOCC2)c1` [Compound B249, N-(4-{[2-(Benzylamino)pyrimidin-4-yl]oxy}-1-naphthyl)-3-fluoro-5-morpholin-4-ylbenzamide] registered a melting point of 121 to 123 °C. Besides, the IC50 at p38α was determined as 13.9 nM. Also, in series [1], the IC50 stood at 12.4 nM.

Regarding `O=C(Nc1ccc(Oc2ccnc(NCCO)n2)c2ccccc12)c1cc(F)cc(N2CCOCC2)c1` [Compound B252, 3-Fluoro-N-[4-({2-[(2-hydroxyethyl)amino]pyrimidin-4-yl}oxy)-1-naphthyl]-5-morpholin-4-ylbenzamide], the melting point was in the range of 127 to 129 °C. The IC50 at p38α came out at 31.9 nM. The IC50 in series [1] was 30.8 nM.

As for `CCn1c(COc2ccc(NC(=O)c3cc(F)cc(N4CCOCC4)c3)c3ccccc23)n[nH]c1=O` [Compound B255, N-[4-(4-Ethyl-5-oxo-4,5-dihydro-1H-[1,2,4]triazol-3-ylmethoxy)-naphthalen-1-yl]-3-fluoro-5-morpholin-4-yl-benzamide], the melting point worked out at 260 °C. The IC50 on p38α was found to be 578 nM. For the same compound, in series [1], the IC50 was 1940 nM.

In turn, `CC1CCN(c2cc(F)cc(C(=O)Nc3ccc(OCc4n[nH]c(=O)n4-c4ccccc4)c4ccccc34)c2)CC1` [Compound B263, 3-Fluoro-5-(4-methyl-piperidin-1-yl)-N-[4-(5-oxo-4-phenyl-4,5-dihydro-1H-[1,2,4]triazol-3-ylmethoxy)-naphthalen-1-yl]-benzamide] gave a melting point of 140 to 143 °C. Further, the IC50 on p38α came to 5080 nM. The IC50 in series [1] worked out at 4260 nM.

Regarding `CSc1nccc(Oc2ccc(NC(=O)c3cc(F)cc(N4CCCC4)c3)c3ccccc23)n1` [Compound B264, 3-Fluoro-N-(4-{[2-(methylthio)pyrimidin-4-yl]oxy}-1-naphthyl)-5-pyrrolidin-1-ylbenzamide], the melting point lay within 180 to 181 °C. Also, the IC50 at p38α was determined as 189 nM. Also, the IC50 in series [1] is 177 nM.

Compound `COc1nccc(Oc2ccc(NC(=O)c3cc(F)cc(N4CCOCC4)c3)c3ccccc23)n1` [Compound B267, 3-Fluoro-N-{4-[(2-methoxypyrimidin-4-yl)oxy]-1-naphthyl}-5-morpholin-4-ylbenzamide] showed a melting point of 216 to 217 °C. Also, the IC50 on p38α was 56.9 nM. The IC50 in series [1] came to 29.2 nM.

On to `CS(=O)(=O)c1nccc(Oc2ccc(NC(=O)c3cc(F)cc(N4CCOCC4)c3)c3ccccc23)n1` [Compound B268, 3-Fluoro-N-(4-{[2-(methylsulfonyl)pyrimidin-4-yl]oxy}-1-naphthyl)-5-morpholin-4-ylbenzamide], for which the melting point lay within 173 to 175 °C. The IC50 on p38α came to 519 nM. In series [1], the concentration for half-maximal inhibition (IC50) amounted to 1370 nM.

On to `CSc1nccc(-c2ccc(NC(=O)c3cc(F)cc(N4CCOCC4)c3)c3ccccc23)n1` [Compound B270, 3-Fluoro-N-[4-(2-methylsulfanyl-pyrimidin-4-yl)-naphthalen-1-yl]-5-morpholin-4-yl-benzamide], for which the melting point lay in the range of 135 to 138 °C. For the same compound, on p38α, the IC50 was 1650 nM. For the same compound, the concentration for half-maximal inhibition (IC50) in series [1] was 6420 nM.

Turning to `CSc1nccc(Oc2ccc(NC(=O)c3cc(F)cc(OC4CCCCC4)c3)c3ccccc23)n1` [Compound B303, 3-(Cyclohexyloxy)-5-fluoro-N-(4-{[2-(methylthio)pyrimidin-4-yl]oxy}-1-naphthyl)benzamide], the melting point was in the range of 130 to 132 °C. Besides, at p38α, the IC50 was determined as 275 nM. In addition, in series [1], the IC50 was found to be 232 nM.

As to `CSc1nccc(Oc2ccc(NC(=O)c3cc(F)cc(OC4CCCC4)c3)c3ccccc23)n1` [Compound B304, 3-(Cyclopentyloxy)-5-fluoro-N-(4-{[2-(methylthio)pyrimidin-4-yl]oxy}-1-naphthyl)benzamide], the melting point lay in the range of 115 to 116 °C. Besides, on p38α, the IC50 is 225 nM. In addition, the IC50 in series [1] was 239 nM.

Regarding `CSc1nccc(Oc2ccc(NC(=O)c3cccc(OC(C)(C)C)c3)c3ccccc23)n1` [Compound B306, 3-tert-Butoxy-N-[4-(2-methylsulfanyl-pyrimidin-4-yloxy)-naphthalen-1-yl]-benzamide], the melting point lay within 135 to 136 °C. The IC50 at p38α was 74.5 nM. Moreover, the IC50 in series [1] was determined as 152 nM.

The compound `CSc1nccc(Oc2ccc(NC(=O)c3cc(F)cc(N4CCCCC4)c3)c3ccccc23)n1` [Compound B311, 3-Fluoro-N-(4-{[2-(methylthio)pyrimidin-4-yl]oxy}-1-naphthyl)-5-piperidin-1-ylbenzamide] came in with a melting point of 170 to 172 °C. Also, the IC50 at p38α was 56 nM. For the same compound, the IC50 in series [1] is 179 nM.

Regarding `CC(C)CNc1nccc(Oc2ccc(NC(=O)c3cc(F)cc(N4CCOCC4)c3)c3ccccc23)n1` [Compound B318, 3-Fluoro-N-(4-{[2-(isobutylamino)pyrimidin-4-yl]oxy}-1-naphthyl)-5-morpholin-4-ylbenzamide], the melting point was 96 to 97 °C. In addition, the IC50 on p38α was 7.2 nM. In addition, the IC50 in series [1] was 38.3 nM.

With `COCCNc1nccc(Oc2ccc(NC(=O)c3cc(F)cc(N4CCOCC4)c3)c3ccccc23)n1` [Compound B319, 3-Fluoro-N-[4-({2-[(2-methoxyethyl)amino]pyrimidin-4-yl}oxy)-1-naphthyl]-5-morpholin-4-ylbenzamide], the melting point fell in the range of 95 to 97 °C. Moreover, at p38α, the IC50 is 1 nM. Also, the IC50 in series [1] came out at 59.3 nM.

The compound `O=C(Nc1ccc(Oc2ccnc(N3CCC4(CC3)OCCO4)n2)c2ccccc12)c1cc(F)cc(N2CCOCC2)c1` [Compound B320, N-(4-{[2-(1,4-Dioxa-8-azaspiro[4.5]dec-8-yl)pyrimidin-4-yl]oxy}-1-naphthyl)-3-fluoro-5-morpholin-4-ylbenzamide] came in with a melting point of 115 to 117 °C. Besides, the 50% inhibitory concentration (IC50) on p38α is 7.1 nM. Also, in series [1], the IC50 was determined as 190 nM.

In turn, `O=C(Nc1ccc(Oc2ccnc(NC3CC3)n2)c2ccccc12)c1cc(F)cc(N2CCOCC2)c1` [Compound B321, N-(4-{[2-(Cyclopropylamino)pyrimidin-4-yl]oxy}-1-naphthyl)-3-fluoro-5-morpholin-4-ylbenzamide] had a melting point of 118 to 120 °C. Besides, on p38α, the IC50 worked out at 3.1 nM. The IC50 in series [1] was found to be 76.1 nM.

`CC(C)N(C)c1nccc(Oc2ccc(NC(=O)c3cc(F)cc(N4CCOCC4)c3)c3ccccc23)n1` [Compound B322, 3-Fluoro-N-[4-({2-[isopropyl(methyl)amino]pyrimidin-4-yl}oxy)-1-naphthyl]-5-morpholin-4-ylbenzamide] displayed a melting point of 94 to 96 °C. In addition, the IC50 on p38α amounted to 44.6 nM. Besides, the IC50 in series [1] amounted to 607 nM.

Take `O=C(Nc1ccc(Oc2ccnc(NC3CCCCC3)n2)c2ccccc12)c1cc(F)cc(N2CCOCC2)c1` [Compound B323, N-(4-{[2-(Cyclohexylamino)pyrimidin-4-yl]oxy}-1-naphthyl)-3-fluoro-5-morpholin-4-ylbenzamide]: the melting point is 135 to 136 °C. Also, on p38α, the IC50 was found to be 11.9 nM. In addition, in series [1], the IC50 worked out at 36.1 nM.

In turn, `O=C(Nc1ccc(Oc2ccnc(N3CCCCC3)n2)c2ccccc12)c1cc(F)cc(N2CCOCC2)c1` [Compound B324, 3-Fluoro-5-morpholin-4-yl-N-{4-[(2-piperidin-1-ylpyrimidin-4-yl)oxy]-1-naphthyl}benzamide] yielded a melting point of 190 to 191 °C. The 50% inhibitory concentration (IC50) on p38α came out at 19 nM. The IC50 in series [1] is over 1000 nM.

In turn, `O=C(Nc1ccc(Oc2ccnc(-n3ccnc3)n2)c2ccccc12)c1cc(F)cc(N2CCOCC2)c1` [Compound B325, 3-Fluoro-N-(4-{[2-(1H-imidazol-1-yl)pyrimidin-4-yl]oxy}-1-naphthyl)-5-morpholin-4-ylbenzamide] yielded a melting point of 153 to 154 °C. On p38α, the IC50 turned out to be 34.4 nM. Besides, in series [1], the IC50 was 247 nM.

`O=C(Nc1ccc(Oc2ccnc(NCCN3CCOCC3)n2)c2ccccc12)c1cc(F)cc(N2CCOCC2)c1` [Compound B326, 3-Fluoro-5-morpholin-4-yl-N-[4-({2-[(2-morpholin-4-ylethyl)amino]pyrimidin-4-yl}oxy)-1-naphthyl]benzamide]: the melting point was in the range of 112 to 114 °C. Besides, at p38α, the IC50 was found to be 3.1 nM. Moreover, the IC50 in series [1] was found to be 76.8 nM.

As to `O=C(Nc1ccc(Oc2ccnc(NCC3CCCO3)n2)c2ccccc12)c1cc(F)cc(N2CCOCC2)c1` (stereo not drawn) [Compound B327, 3-Fluoro-5-morpholin-4-yl-N-[4-({2-[(tetrahydrofuran-2-ylmethyl)amino]pyrimidin-4-yl}oxy)-1-naphthyl]benzamide], the melting point lay in the range of 103 to 105 °C. The IC50 at p38α was 2.1 nM. Besides, the half-inhibitory concentration (IC50) in series [1] was determined as 24.8 nM.

In the case of `CN1CCN(c2nccc(Oc3ccc(NC(=O)c4cc(F)cc(N5CCOCC5)c4)c4ccccc34)n2)CC1` [Compound B328, 3-Fluoro-N-(4-{[2-(4-methylpiperazin-1-yl)pyrimidin-4-yl]oxy}-1-naphthyl)-5-morpholin-4-ylbenzamide], the melting point fell in the range of 195 to 197 °C. In addition, the IC50 on p38α worked out at 4.4 nM. Besides, in series [1], the IC50 came out at 149 nM.
